Data from patent US20260062422A1 (Halda Therapeutics OpCo, Inc., priority 2022, published 2026).

How the values were obtained:
[1] = system: T-Rex 293 cell line SC3 cells lacking increased expression of androgen receptor protein; test: Cellular growth inhibition, T-Rex 293 SC3 cells without doxycycline, CellTiter-Glo; format: cell-based; settings: T-Rex 293 SC3 cells not exposed to doxycycline, CellTiter-Glo 2.0
In short: (§1)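 Doxycycline-inducible androgen receptor T-Rex 293 clone SC3, seeded at 2500/well in phenol red-free DMEM with 10% charcoal-dextran FBS, without doxycycline or with 10 ng/mL to induce receptor. Compound added after 24 h (0.5% DMSO), 72 h at 37 °C; CellTiter-Glo 2.0 luminescence, GI50 by four-parameter fit.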

[2] = system: T-Rex 293 cell line SC3 cells having increased expression of androgen receptor protein due to exposure to doxycycline; test: Cellular growth inhibition, T-Rex 293 SC3 cells with doxycycline (androgen receptor induced), CellTiter-Glo; format: cell-based; settings: T-Rex 293 SC3 cells with 10 ng/mL doxycycline (increased androgen receptor expression)
In short: as §1

T47D cells = test: Cellular growth inhibition assay for T47D cells, CellTiter-Glo; format: cell-based, human; settings: 72 hours treatment, CellTiter-Glo 2.0 cell viability
In short: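 Luminescence from CellTiter-Glo 2.0 after 72 h of compound exposure gives the viability signal. Cells grew in insulin-supplemented (0.2 units/mL) DMEM with 10% FBS and were treated one day after seeding at 0.5% DMSO. GI50 values come from four-parameter nonlinear regression.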

VCaP cells = test: Cellular growth inhibition assay for VCaP cells, CellTiter-Glo; format: cell-based, human; settings: 72 hours treatment, CellTiter-Glo 2.0
In short: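 GI50 values come from four-parameter curve fits of luminescence data normalized to a zero baseline. Compound, in medium with 0.5% DMSO, was added one day after plating and left for 72 h before CellTiter-Glo 2.0 addition.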

Row | GI50 (T47D cells) [µM] | GI50 (VCaP cells) [µM] | GI50 (T47D cells; Homo sapiens, T47D, 72 h) [µM] | GI50 (VCaP cells; Homo sapiens, VCaP, 72 h) [µM] | SMILES | GI50 ([1]; 72 hours) [µM] | GI50 ([2]; 72 hours) [µM] | GI50 ([1]; 72 h) [µM] | GI50 ([2]; 72 h) [µM]
1 | < 0.5 | < 0.5 |  |  | Cc1sc2c(c1C)C(c1ccc(C3CC(C4CCN(c5ncc(C(=O)N[C@H]6C(C)(C)[C@H](Oc7ccc(C#N)c(Cl)c7)C6(C)C)cn5)CC4)C3)cc1)=NC(C)c1nnc(C)n1-2 (stereo partly shown) [Compound I-468] | > 3 | < 0.5 |  | 
2 |  |  | 0.5 to 1.5 | 1.5 to 3 | Cc1sc2c(c1C)C(c1ccc(C#C[C@H]3C[C@@]4(CCCN(c5ncc(C(=O)N[C@H]6C(C)(C)[C@H](Oc7ccc(C#N)c(Cl)c7)C6(C)C)cn5)C4)C3)cc1)=N[C@@H](Cc1ncco1)c1nnc(C)n1-2 [Compound I-268] |  |  | > 3 | < 0.5
3 |  |  | > 3 | < 0.5 | Cc1sc2c(c1C)C(c1ccc(-c3csnc3OC3CCN(c4ncc(C(=O)N[C@H]5C(C)(C)[C@H](Oc6ccc(C#N)c(Cl)c6)C5(C)C)cn4)CC3)cc1)=N[C@@H](Cc1ncco1)c1nnc(C)n1-2 [Compound I-431] |  |  | > 3 | < 0.5
4 |  |  | < 0.5 | < 0.5 | CC[C@@H]1N=C(c2ccc(N3CC(CC4CCN(c5ncc(C(=O)N[C@H]6C(C)(C)[C@H](Oc7ccc(C#N)c(Cl)c7)C6(C)C)cn5)CC4)C3)cc2)c2c(sc(C)c2C)-n2c(C)nnc21 [Compound I-593] |  |  | > 3 | < 0.5
5 |  |  | < 0.5 | < 0.5 | Cc1sc2c(c1C)C(c1ccc(C3CCC4(CC3)CCN(c3ncc(C(=O)N[C@H]5C(C)(C)[C@H](Oc6ccc(C#N)c(Cl)c6)C5(C)C)cn3)C4)cc1)=N[C@@H](Cc1ncco1)c1nnc(C)n1-2 [Compound I-671, N-[3-(3-chloro-4-cyano-phenoxy)-2,2,4,4-tetramethyl-cyclobutyl]-2-[8-[4-[(9S)-4,5,13-trimethyl-9-(oxazol-2-ylmethyl)-3-thia-1,8,11,12-tetrazatricyclo[8.3.0.02,6]trideca-2(6),4,7,10,12-pentaen-7-yl]phenyl]-2-azaspiro[4.5]decan-2-yl]pyrimidine-5-carboxamide] |  |  | < 0.5 | < 0.5
6 |  |  | < 0.5 | < 0.5 | Cc1sc2c(c1C)C(c1ccc(N3CCC4(C3)CN(c3cnc(C(=O)N[C@H]5C(C)(C)[C@H](Oc6ccc(C#N)c(Cl)c6)C5(C)C)cn3)C4)cc1)=N[C@@H](C)c1nnc(C)n1-2 [Compound I-578] |  |  | > 3 | > 3
7 |  |  | > 3 | > 3 | Cc1sc2c(c1C)C(c1ccc(C[C@H]3C[C@@]4(CN(c5ncc(C(=O)N[C@H]6C(C)(C)[C@H](Oc7ccc(C#N)c(Cl)c7)C6(C)C)cn5)CCO4)C3)cc1)=N[C@@H](Cc1ncco1)c1nnc(C)n1-2 [Compound I-244] |  |  | > 3 | < 0.5
8 |  |  | 0.5 to 1.5 | < 0.5 | Cc1sc2c(c1C)C(c1ccc(O[C@H]3CCCN(c4ncc(C(=O)N[C@H]5C(C)(C)[C@H](Oc6ccc(C#N)c(Cl)c6)C5(C)C)cn4)C3)cc1)=N[C@@H](Cc1ncco1)c1nnc(C)n1-2 [Compound I-253] |  |  | < 0.5 | < 0.5
9 |  |  | > 3 | < 0.5 | Cc1sc2c(c1C)C(c1ccc(-c3scnc3OC3CCN(c4ncc(C(=O)N[C@H]5C(C)(C)[C@H](Oc6ccc(C#N)c(Cl)c6)C5(C)C)cn4)CC3)cc1)=N[C@@H](Cc1ncco1)c1nnc(C)n1-2 [Compound I-390] |  |  | > 3 | < 0.5
10 |  |  | 0.5 to 1.5 | 0.5 to 1.5 | Cc1sc2c(c1C)C(c1ccc(C(=O)N3CCC[C@@H](C(=O)c4ncc(C(=O)N[C@H]5C(C)(C)[C@H](Oc6ccc(C#N)c(Cl)c6)C5(C)C)cn4)C3)cc1)=N[C@@H](Cc1ncco1)c1nnc(C)n1-2 [Compound I-344] |  |  | > 3 | > 3
11 |  |  | < 0.5 | < 0.5 | Cc1sc2c(c1C)C(c1ccc(OC[C@@H]3CCCN(c4ncc(C(=O)N[C@H]5C(C)(C)[C@H](Oc6ccc(C#N)c(Cl)c6)C5(C)C)cn4)C3)cc1)=N[C@@H](Cc1ncco1)c1nnc(C)n1-2 [Compound I-254] |  |  | < 0.5 | < 0.5
12 |  |  | > 3 | > 3 | Cc1sc2c(c1C)C(c1ccc(CC[C@H]3C[C@@]4(CCCN(c5ncc(C(=O)N[C@H]6C(C)(C)[C@H](Oc7ccc(C#N)c(Cl)c7)C6(C)C)cn5)C4)C3)cc1)=N[C@@H](Cc1ncco1)c1nnc(C)n1-2 [Compound I-240] |  |  | > 3 | > 3
13 |  |  | < 0.5 | < 0.5 | Cc1sc2c(c1C)C(c1ccc(C[C@H]3C[C@]4(CN(c5ncc(C(=O)N[C@H]6C(C)(C)[C@H](Oc7ccc(C#N)c(Cl)c7)C6(C)C)cn5)CCO4)C3)cc1)=N[C@@H](Cc1ncco1)c1nnc(C)n1-2 [Compound I-245] |  |  | < 0.5 | < 0.5
14 |  |  | < 0.5 | < 0.5 | Cc1sc2c(c1C)C(c1ccc(CCC3CCN(c4ncc(C(=O)N[C@H]5C(C)(C)[C@H](Oc6ccc(C#N)c(Cl)c6)C5(C)C)cn4)CC3)cc1)=N[C@@H](Cc1ncco1)c1nnc(C)n1-2 [Compound I-132] |  |  | > 3 | < 0.5
15 |  | < 0.5 | < 0.5 |  | Cc1sc2c(c1C)C(c1ccc(CC3CC(OC4CCN(c5ncc(C(=O)N[C@H]6C(C)(C)[C@H](Oc7ccc(C#N)c(Cl)c7)C6(C)C)cn5)CC4)C3)cc1)=N[C@@H](C)c1nnc(C)n1-2 (stereo partly shown) [Compound I-445] |  |  | > 3 | < 0.5
16 |  |  | > 3 | > 3 | Cc1sc2c(c1C)C(c1ccc(C(=O)N3CCN(C(=O)c4ncc(C(=O)N[C@H]5C(C)(C)[C@H](Oc6ccc(C#N)c(Cl)c6)C5(C)C)cn4)CC3)cc1)=N[C@@H](Cc1ncco1)c1nnc(C)n1-2 [Compound I-285] |  |  | > 3 | > 3
17 |  |  | 0.5 to 1.5 | < 0.5 | Cc1sc2c(c1C)C(c1ccc(CN3CC[C@@]4(CCCN(c5ncc(C(=O)N[C@H]6C(C)(C)[C@H](Oc7ccc(C#N)c(Cl)c7)C6(C)C)cn5)C4)C3)cc1)=N[C@@H](Cc1ncco1)c1nnc(C)n1-2 [Compound I-144] |  |  | < 0.5 | < 0.5
18 |  |  | > 3 | > 3 | Cc1sc2c(c1C)C(c1ccc(Nc3ccc(N4CCN(c5ncc(C(=O)N[C@H]6C(C)(C)[C@H](Oc7ccc(C#N)c(Cl)c7)C6(C)C)cn5)CC4)c(C(F)(F)F)c3)cc1)=N[C@@H](C)c1nnc(C)n1-2 [Compound I-602] |  |  | > 3 | > 3
19 |  | < 0.5 | < 0.5 |  | Cc1sc2c(c1C)C(c1ccc(C3CC(C4CCN(c5cnc(C(=O)N[C@H]6C(C)(C)[C@H](Oc7ccc(C#N)c(Cl)c7)C6(C)C)cn5)CC4)C3)cc1)=NC(C)c1nnc(C)n1-2 (stereo partly shown) [Compound I-469] | 0.5 to 1.5 | < 0.5 |  | 
20 |  |  | < 0.5 | < 0.5 | Cc1sc2c(c1C)C(c1ccc(CC3CC4(C3)CN(c3ncc(C(=O)N[C@H]5C(C)(C)[C@H](Oc6ccc(C#N)c(Cl)c6)C5(C)C)cn3)C4)cc1)=N[C@@H](Cc1ncco1)c1nnc(C)n1-2 [Compound I-151] |  |  | < 0.5 | < 0.5
21 |  |  | < 0.5 | < 0.5 | Cc1sc2c(c1C)C(c1ccc(N3CCN(C4CN(c5ncc(C(=O)NC6C(C)(C)C(Oc7ccc(C#N)c(Cl)c7)C6(C)C)cn5)C4)CC3)cc1)=N[C@@H](CC(=O)OC(C)(C)C)c1nnc(C)n1-2 (stereo partly drawn) [Compound I-236, tert-butyl 2-[(9S)-7-[4-[4-[1-[5-[[3-(3-chloro-4-cyano-phenoxy)-2,2,4,4-tetramethyl-cyclobutyl]carbamoyl]pyrimidin-2-yl]azetidin-3-yl]piperazin-1-yl]phenyl]-4,5,13-trimethyl-3-thia-1,8,11,12-tetrazatricyclo[8.3.0.02,6]trideca-2(6),4,7,10,12-pentaen-9-yl]acetate] |  |  | 0.5 to 1.5 | < 0.5
22 |  |  | > 3 | > 3 | Cc1sc2c(c1C)C(c1ccc(N(C)CC(=O)N3CCC(c4ncc(C(=O)N[C@H]5C(C)(C)[C@H](Oc6ccc(C#N)c(Cl)c6)C5(C)C)cn4)CC3)cc1)=N[C@@H](Cc1ncco1)c1nnc(C)n1-2 [Compound I-355] |  |  | > 3 | > 3
23 |  |  | > 3 | > 3 | Cc1sc2c(c1C)C(c1ccc(C(=O)N3CCN(Cc4ncc(C(=O)N[C@H]5C(C)(C)[C@H](Oc6ccc(C#N)c(Cl)c6)C5(C)C)cn4)CC3)cc1)=N[C@@H](Cc1ncco1)c1nnc(C)n1-2 [Compound I-327] |  |  | > 3 | > 3
24 |  |  | 0.5 to 1.5 | < 0.5 | Cc1sc2c(c1C)C(c1ccc(N3CC(C4CCN(c5ncc(C(=O)N[C@H]6C(C)(C)[C@H](Oc7ccc(C#N)c(Cl)c7)C6(C)C)cn5)C4)C3)cc1)=NC1(CC1)c1nnc(C)n1-2 (stereo partly shown) [Compound I-604] |  |  | < 0.5 | < 0.5
25 |  |  | < 0.5 | < 0.5 | Cc1sc2c(c1C)C(c1ccc(N[C@@H]3CCC[C@H](Nc4ncc(C(=O)N[C@H]5C(C)(C)[C@H](Oc6ccc(C#N)c(Cl)c6)C5(C)C)cn4)C3)cc1)=NC(Cc1ncco1)c1nnc(C)n1-2 (stereo partly shown) [Compound I-653] |  |  | < 0.5 | < 0.5
